Patent US20090318479A1, “SUBSTITUTED RING FUSED AZINES AND THEIR USE IN CANCER THERAPY” (Auckland Uniservices Limited, priority 2006, published 2009)
Like-named read-outs stand apart in the source and are kept apart here.

How the values were obtained:
[1] = system: NZOV11 human ovarian cell line; assay: restoration of p53 function: G1-phase arrest after irradiation plus paclitaxel, flow cytometry; type: cell-based; conditions: 9 Gray plus 200 nM paclitaxel, 24 hours; for AC50: NZOV11, p53 mutated at position 248, G1 proportion restored to (a+b)/2, read-out: AC-50% (concentration of drug that restores the G1-phase proportion of the cultured cells); for Activity: NZOV11, p53 mutated at position 248 (arginine to glutamine)
Description: Description of the in vitro assay: This protocol employs a novel assay that was used to measure the restoration of one of the principal p53 functions, that of regulating entry into S-phase (DNA replication) of the cell division cycle. Without being bound to any specific understanding, it is thought that these compounds may act to restore the known ability of p53 to induce cell cycle arrest in the G1-phase of the cell division cycle through induction of the p21^WAF1 protein in response to DNA damage (Levine. Cell 1997, 88, 323-31). Logarithmic phase cultures of tumour cell lines are irradiated in the presence of an inhibitor of cell division (to prevent the generation of G1-phase cells by cell division), and then allowed to grow for approximately one cell division time. If p53 function is present it will inhibit the progression of cells from the G1-phase to the S-phase of the cell division cycle, as a consequence of induction of the p21^WAF1 protein. If p53 function is absent there will be little or no cells in the G1-phase of the cell division cycle at the end of the incubation. […] The ability of an individual drug to restore p53 function is therefore evaluated against a positive control of non-irradiated cells and a negative control of cells that have been treated with a combination of radiation and a mitotic inhibitor.
Logarithmic phase cultures of tumour cell lines are plated in insulin-transferrin-selenite growth medium on 100 mm plates (10 ml) at a density of 10^4 cells/ml, using the standard cell culture conditions that are established in this laboratory (Marshall et al., Oncol Res 1994, 5, 301-9). The test compound is added to some cultures at a range of concentrations up to 20 μM. The anticancer drug paclitaxel is used as an inhibitor of cell division and is added to some cultures at a concentration of 200 nM. Cultures are irradiated where indicated at a dose of 9 Gray. Following irradiation, cultures are incubated at 37° C. for 24 hours, the cells harvested, washed once and fixed overnight in 100% methanol at −20° C. at a density of 5×10^5 cells/ml. Cells are rehydrated by washing in phosphate buffered saline with 2% foetal bovine serum, then incubated with RNAase A (0.25 mg/ml) at 37° C. for 30 min. Cells are then washed and resuspended in phosphate buffered saline containing 0.1 mM EDTA and 25 μg/ml propidium iodide. Cycle analysis (red fluorescence) is performed using a Becton Dickinson (Mountain View, Calif.) FACScan flow cytometer. Cellular DNA content profiles are analyzed using Modfit software (Verity Software House, Inc.) to provide estimates of the proportions of G1-, S- and G2/M-phase cells, and of other cellular material. By comparing the effects of irradiation and addition of paclitaxel separately, the assay provides evidence of non-specific inhibition of cell growth from changes in cell number, cell cycle distribution, and production of cellular debris.
Using cell cultures that have been both irradiated and treated with paclitaxel, the proportion of cells in G1-phase is plotted against the concentration of added test compound. Depending on the cell line, the proportion of G1-phase cells in the absence of added compound is generally less than 5% (defined as a). […] The 50%-activating concentration (AC-50%) of the test compound is defined as the concentration that restores the G1-phase proportion of the cultured cells to a value of (a+b)/2.
The NZOV11 human ovarian cell line, previously developed in this laboratory according to methods that have previously been published (Baguley B C et al., Eur J Cancer 1998, 34, 1086), was used in these studies to compare the activity of each of the drugs.

[2] = system: Saos-2 osteosarcoma cells; conditions: cited from earlier work
[3] = system: A375.S2 melanoma (mutated at p53 position 249); conditions: A375.S2 melanoma cells in nude mice; cited from earlier work
[4] = system: DLD-1 colon carcinoma (mutated at p53 position 241); conditions: DLD-1 colon carcinoma cells in nude mice; cited from earlier work
[5] = background statement; cited from earlier work
[6] = system: other cell lines with mutations in other parts of the p53 protein; assay: restoration of p53 function in other cell lines with other p53 mutations; type: cell-based; conditions: a number of other cell lines with mutations in other parts of the p53 protein
C57Bl mice = assay: maximum tolerated intraperitoneal single dose and signs of toxicity in mice; type: in vivo
Protocol: (§1) Pharmacological studies in mice: A further consideration in this project is whether effective plasma concentrations can be achieved in vivo without significant side-effects. C57Bl mice were maintained under standard conditions in accordance with institutional ethical guidelines. The maximum tolerated intraperitoneal single dose of compound 3 was determined by administering different doses of drug to mice and found to be 100 mg/kg. […] An effective analytical procedure for the determination of concentrations of 3 in mouse plasma was developed, using high performance liquid chromatography and detection by ion trap mass spectrometry. The method is broadly applicable to compounds in the series. Blood samples were obtained under terminal anesthesia either before or at 1, 2 and 4 hours after a single intraperitoneal dose of 100 mg/kg. Plasma was prepared and analyzed using the method developed above.

[7] = plasma concentrations after a single intraperitoneal dose; type: in vivo; conditions: C57Bl mice, single intraperitoneal 100 mg/kg, 1, 2 and 4 hours, FIG. 1
Protocol: Illustrates the in vivo plasma concentrations of compound 3 over time following a single intraperitoneal administration (100 mg/kg) to C57Bl mice.
as §1

[8] = system: NZM4 human tumour xenografts; assay: growth of NZM4 human tumour xenografts in immunodeficient (rag 1) mice; type: in vivo
Protocol: Illustrates the growth curves for immunodeficient mice with NZM4 human tumour xenografts. Mice were either untreated (closed circles), treated with 2 Gray radiation alone (open circles) or treated with radiation combined with compound 3 (100 mg/kg per dose).
In vivo estimation of ability to restore p53 function: A further consideration in this project is to determine whether members of this series have the ability to inhibit the growth of human cell lines that contain mutant p53 protein. This consideration was addressed with the use of compound 3, for which in vitro evidence has been obtained for ability to restore p53 function (Table 2) and for which pharmacological evidence has been obtained for biologically relevant plasma concentrations in vivo in the absence of significant side-effects (FIG. 1). Immunodeficient (rag 1) mice were maintained under standard conditions in accordance with institutional ethical guidelines. Cells from the NZM4 cell line (Marshall E S et al., Eur J Cancer 1994; 30A: 1370-1376) were grown in culture and harvested. Mice were injected subcutaneously with 10^7 cells and tumours allowed to grow to a diameter of approximately 5 mm. Mice received whole-body irradiation of 2 Gray and were then administered compound 3 by intraperitoneal injection immediately after, and 1 and 2 days following, irradiation. […] Control animals received no treatment or were irradiated in the absence of drug administration.
Tumour growth was recorded three times weekly by measuring the minor and major dimensions of the tumour and tumour volumes were calculated as 0.52 times (minor dimension)^2 times (major dimension). Tumour volumes were normalized to the initial volume and plotted versus time. FIG. 2 illustrates the growth curves for immunodeficient mice with NZM4 human tumour xenografts. Mice were either untreated (closed circles), treated with 2 Gray radiation alone (open circles) or treated with radiation combined with compound 3 (100 mg/kg per dose). […]

SMILES	AC50 ([1]; Homo sapiens) [µM]	Activity [1]	other results
CN(C)CCCNc1nc(-c2cc3ccccc3o2)nc2ccc([N+](=O)[O-])cc12 [Compound 29, N^1-[2-(1-Benzofuran-2-yl)-6-nitro-4-quinazolinyl]-N^3,N^3-dimethyl-1,3-propanediamine]	12	Active	–
Cc1c(-c2nc(NCCCN(C)C)c3ccccc3n2)oc2ccccc12.Cl.Cl [Compound 60, N^1,N^1-Dimethyl-N^3-[2-(3-methyl-1-benzofuran-2-yl)-4-quinazolinyl]-1,3-propanediamine dihydrochloride]	18	Active	–
CN(C)CCCNc1nc(-c2cc3ccccc3s2)nc2ccccc12.Cl.Cl [Compound 75, N^1-[2-(1-Benzothien-2-yl)-4-quinazolinyl]-N^3,N^3-dimethyl-1,3-propanediamine dihydrochloride]	8	Active	–
Cc1cccc2c(NCCCN(C)C)nc(-c3cc4ccccc4o3)nc12.Cl.Cl [Compound 45, N^1-[2-(1-Benzofuran-2-yl)-8-methyl-4-quinazolinyl]-N^3,N^3-dimethyl-1,3-propanediamine dihydrochloride]	5.8	Active	–
COc1ccc(/C=C/c2nc(NCCCN(C)C)c3ccccc3n2)cc1 [(i)]	–	–	ability of mutant p53 protein to induce the cellular p21 gene ([2]; Saos-2 osteosarcoma cells): restored the ability of mutant p53 protein to induce the cellular p21 gene; potency ([2]; background statement, no test named): not very potent; suppression of tumour growth [3]: able to suppress the growth; suppression of tumour growth [4]: able to suppress the growth; chemical stability [5]: chemically unstable
CN(C)CCCNc1nc(-c2cc3ccccc3o2)nc2ccc(N)cc12.Cl.Cl [Compound 30]	–	Active	–
Cc1ccc2c(NCCC3CCCN3C)nc(-c3cc4ccccc4o3)nc2c1C.Cl.Cl (centres unmarked) [Compound 79, 2-(1-Benzofuran-2-yl)-7,8-dimethyl-N-[2-(1-methyl-2-pyrrolidinyl)ethyl]-4-quinazolinamine dihydrochloride]	7.5	Active	–
CN(C)CCCNc1nc(-c2cc3ccccc3o2)nc2ccc(N)cc12.Cl.Cl [Compound 30, N^1-[2-(1-Benzofuran-2-yl)-N^4-[3-(dimethylamino)propyl]-4,6-quinazolinediaminedihydrochloride]	–	–	AC50 [1]: 9.5 µM
CN(C)CCCNc1cc(-c2cc3ccccc3o2)nc2ccccc12.Cl.Cl [Compound 80, N^1-[2-(1-benzofuran-2-yl)-4-quinolinyl]-N^3,N^3-dimethyl-1,3-propanediamine dihydrochloride]	15	Active	–
Cc1ccc2c(N(C)CCC(C)N)nc(-c3cc4ccccc4o3)nc2c1C.Cl.Cl (centres unmarked) [Compound 58, N^1-[2-(1-Benzofuran-2-yl)-7,8-dimethyl-4-quinazolinyl]-3,N-dimethyl-1,3-propanediamine dihydrochloride]	2.7	Active	–
CN(C)CCCNc1nc(-c2cc3ccccc3o2)nc2cc(C(F)(F)F)ccc12.Cl.Cl [Compound 35, N^1-[2-(1-Benzofuran-2-yl)-7-(trifluoromethyl)-4-quinazolinyl]-N^3,N^3-dimethyl-1,3-propanediamine dihydrochloride]	3.4	Active	–
CN(C)CCCNc1nc(-c2cc3ccccc3o2)nc2ccccc12.Cl.Cl [Compound 3, N^1-[2-(1-benzofuran-2-yl)-4-quinazolinyl]-N^3,N^3-dimethyl-1,3-propanediamine dihydrochloride]	8.5	Active	ability to restore p53 function [6]: able to restore p53 function; maximum tolerated intraperitoneal single dose (C57Bl mice; single intraperitoneal dose): 100 mg/kg; signs of toxicity (weight loss, ruffling of fur, behavioral changes) (C57Bl mice; single intraperitoneal dose of 100 mg/kg): No signs of toxicity; achieved plasma concentrations [7]: comparable to the AC-50% value; time to reach three times the initial tumour volume ([8]; 2 Gray radiation together with compound, 100 mg/kg per dose intraperitoneal on days 0, 1 and 2 after irradiation): 17 days; signs of toxicity ([8]; rag 1 mice, 2 Gray whole-body irradiation plus intraperitoneal compound immediately after and 1 and 2 days after): No signs of toxicity; tumour growth rate with drug alone compared with mice not treated with drug ([8]; rag1 mice, drug alone at the same schedule, no irradiation): identical rate
